The conditions of data set [1]: cited from earlier work.
For data set [2] the following is noted: thiol pKa; cited from earlier work.
A short description of data set [3]: Time dependent fluorescence response of probe L with biothiols. The protocol:
Time dependent fluorescence response of probe L or compound of Formula (L) is carried out with 200 equiv of Cys. […] (FIG. 4).

A short description of data set [4]: TLC test strips coated with probe L. The protocol:
The same strategy is further extended to detect Cys in blood plasma and the Cys released in an enzymatic reaction as well. […] The same methodology is further extended to detect the enzymatically generated Cys from NAC.
TLC test strips were prepared by coating 5 μM of 7-(diethylamino)-3-((E)-4-((E)-2-nitrovinyl)styryl)-2H-chromen-2-one solution in acetonitrile on silica TLC plates. 5 μl of Cys (1.0×10^−1M) in 10 mM aq.HEPES buffer (pH7) was added on it, dried and the visual as well as fluorescence colour changes were observed after 5 min. The same was repeated for Hcy and GSH as well. To detect Cys in blood plasma, 20 μl of blood plasma was diluted (10 μl plasma+10 μl buffer) was added on probe quoted TLC plate. Same methodology was repeated for enzymatic reaction on TLC plate by using 10 μl of NAC and amino acylase-1 enzyme.

A short description of data set [5]: UV-Vis absorption response of probe L to amino acids and Cys. The source says: With the addition of Cys (0-100 equiv.), absorption band at 468 nm gradually decreases and a new band appeared at 438 nm with a visible colour change from red to green (FIG. 1B). A hypsochromic shift (˜30 nm) with three well defined isosbestic points are observed at 445 nm, 372 nm and 325 nm. This Cys-induced hypsochromic shift indicates the suppression of ICT process from donor diethylamino unit to acceptor nitroalkene unit.
(§1) 5×10^−3M stock solution of 7-(diethylamino)-3-((E)-4-((E)-2-nitrovinyl)styryl)-2H-chromen-2-one was prepared in CH3CN and the same solution was used for all the studies after appropriate dilution. Unless and otherwise mentioned, 10 mM and pH 7 solution of aq. HEPES buffer was used for all spectroscopic studies. All amino acid solutions of 1.0×10^−1M were prepared in HEPES buffer (pH 7). For spectroscopic measurements, stock solution of the probe was further diluted by using HEPES:CH3CN (9:1) mixture and the effective final concentration was made as 10 μM. All luminescence measurements were done using λext=445 nm with an emission slit width of 2 nm. The fluorescence quantum yield was determined according to literature method using fluorescein (in 0.1M NaOH) as reference (Φf=0.92).

Data set [6] relates to whey protein. The experiment in a line: Detection of cysteine in whey protein from raw milk. The note with it: L 10 μM, whey 500 μl, NAC 0-500 μl. The source says:
Suitability of this reagent for specific recognition and estimation of Cys-residues present in natural milk proteins was also explored. For this study whey protein was isolated from milk. Initially some fluorescence was observed, which is due to the presence of free Cys. Then NAC tablets are used to reduce the disulfides present in whey. […] So, this reagent could be used as protein labeling agent to specifically label the Cys present in proteins.
Raw milk was subjected to fermentation and the liquid whey which was settled above after fermentation process was separated by filtration. A varying amount of whey ranging from 500 μl was added to Probe L (7-(diethylamino)-3-((E)-4-((E)-2-nitrovinyl)styryl)-2H-chromen-2-one) (10 μM) in HEPES:ACN at pH 7. Varying concentrations of N-Acetyl Cysteine (0-500 μl) was added to each of the above solution in order to hydrolyse the bound Cysteine present in whey protein (NAC solution was prepared by dissolving NAC tablets in buffer as mentioned in the enzymatic study). Luminescence changes were recorded after 45-50 minutes of incubation at room temperature. The remaining derivatives of probe L may give similar kind of response.

The test system of data set [7] is amino acylase-1. The experiment in a line: Detection of Cys generated enzymatically from NAC. It is filed as biochemical. The text has this: In another preferred embodiment, the detection of Cys generated in an enzymatic reaction is studied. N-acetyl-cysteine (NAC) is employed as substrate and amino acylase-1 as an enzyme. N-acetyl-cysteine, an acetylated form of Cys, a well known pro-drug used as a cysteine supplement in treatment of glutathione replenishment, acetaminophen over dose, HIV patients etc. NAC supplement releases the Cys inside the cells. […] Amino acylases are a class of enzymes which specifically hydrolyses the N-acetylated amino acids to release the free amino acids. There are many amino acylases known for de-acetylation of acetylated amino acids, among them Amino acylase-1 is well known for its ability to hydrolyse acetylated cysteine.
Cipla made effervescent tablets of N-Acetyl-Cysteine were purchased from commercially available sources. Based on the quantity of NAC present in the tablet, 1.0×10^−1M tablet solution was prepared in 10 mM aq.
HEPES buffer solution (pH7). Enzyme solution was prepared according to the requirement by dissolving 1 mg/ml in 10 mM aq.HEPES buffer solution (pH7). A fixed concentration of NAC (200 equiv.) was added to the 10 μM probe in HEPES:CH3CN (9:1, v/v). Since 1 mg of solid enzyme contains 3301 units of protein and 1 unit can hydrolyse 1 μM of substrate, accordingly enzyme concentration was varied with respect to the substrate concentration.
10 μM of 7-(diethylamino)-3-((E)-4-((E)-2-nitrovinyl)styryl)-2H-chromen-2-one is treated with 200 equiv. of NAC and different concentration of enzyme (0-2000 units) was added and the resulting solution was incubated at 37° C. for the time period ranging from 45 to 50 mins. Initially there is no fluorescence because NAC cannot bind to probe and fluorescence is turned on gradually with time, which indicates the hydrolysis of NAC by Amino acylase-1 to release of Cys. Fluorescence intensity increases with the increase in concentration of enzyme (0 to 2000 units) as more and more amounts of Cys was released from NAC by the enzymatic activity (FIG. 6). […]

Data set [8] can be described thus: Comparison of Formula (L) with prior art coumarin derivatives. The source says:
In still yet another embodiment, the present invention provides the comparison study of said coumarin derivatives of Formula (L) with previous prior arts coumarin derivative.

Data set [9] can be described thus: Fluorescence response of probe L to amino acids and Cys in HEPES:CH3CN (9:1), pH 7.
Text: In the absence of Cys, probe L is almost non fluorescent (Φf=0.06), upon addition of Cys (0-1000 equiv.), fluorescence intensity is increased remarkably up to 7 fold with an emission band centered at 524 nm (λExt=445 nm) (FIG. 2B). […] The quantum yield of probe after the addition of Cys increases (Φf=0.32) with respect to fluorescein (Φf=0.92). The fluorescence turn on response of the probe upon addition of Cys is due to the formation of 1,4 conjugate addition product, which blocks the PET quenching by nitro olefin and also ICT process from diethylamino to nitro olefin unit. The results were in well agreement with our proposed hypothesis. […] The fluorescence intensities of the probe at 524 nm show a good linear relationship with the concentration of Cys between 0 to 1000 μM. The detection limit of Cys is determined as 23.65 nM (23.65×10^−9) based on S/N=3. (FIG. 8)
Cys being a low pKa protein thiol, at neutral pH, the thiolate/thiol ratio is higher for Cys than for Hcy and GSH, which results in greater reactivity of Cys with the probe. This could be the reason for getting selectivity to Cys over Hcy and GSH at pH 7. Also pH 7, being neutral, much suitable for biological studies.
as §1

Setting [10] is: HEPES:CH3CN (9:1), pH 7, with respect to fluorescein.

In the case of `O=C(/C=C/c1ccc2ccccc2n1)c1cc2cc3c4c(c2oc1=O)CCCN4CCC3`, the “sensitivity or specificity of prior art probe (comparison)” value in data set [1] is recorded as “Detect only micromolar range”.
Turning to `CCN(CC)c1ccc2cc(/C=C/[N+](=O)[O-])c(=O)oc2c1`, the “sensitivity or specificity of prior art probe (comparison)” value in [1] was “Not specific to Cys”.
For orientation: pKa means the negative logarithm of the acid dissociation constant. Take `N[C@@H](CCC(=O)N[C@@H](CS)C(=O)NCC(=O)O)C(=O)O` [GSH, Glutathione]: the pKa in data set [2] is on record as 9.5.
With `N[C@@H](CCS)C(=O)O` [Hcy, Homocysteine], in data set [2], the pKa is 10.0.
For `CCN(CC)c1ccc2cc(/C=C/c3ccc(/C=C/[N+](=O)[O-])cc3)c(=O)oc2c1` [L, 7-(diethylamino)-3-((E)-4-((E)-2-nitrovinyl)styryl)-2H-chromen-2-one], the “time to completion of the reaction with Cys” value in data set [3] (200 equiv of Cys) stood at 25 min. Further, the “time dependent fluorescence with Hcy and GSH” value in data set [3] (200 equiv. each) is given as “no significant changes in the fluorescence observed”. In addition, the “response of probe coated TLC plates to Hcy and GSH” value in data set [4] is given as “does not give any observable visible as well as fluorescence changes”. The “colour change of probe coated TLC plates with Cys” value in data set [4] (5 μM L on silica TLC, 365 nm UV lamp) is recorded as “changes from red to yellowish green”. The “hypsochromic shift of the absorption band upon addition of Cys” value in data set [5] (Cys 0-100 equiv., 468 nm to 438 nm) is approximately 30 nm. The “absorption response to amino acids (selectivity)” value in data set [5] (L 10 μM, amino acids 100 equiv., pH 7) is “Only Cys gives an observable change in absorption spectra”. Besides, in data set [6], the “fluorescence with whey and NAC” value is listed as “fluorescence intensity of L gradually increases”. The “fluorescence after addition of aminoacylase-1” value in [7] (L 10 μM, NAC 200 equiv., enzyme 0-2000 units, 37° C.) is listed as “fluorescent intensity gradually increases”. Besides, the “emission at 520 nm with NAC in absence of aminoacylase-1” value in data set [7] (L 10 μM, NAC 200 equiv., pH 7) is on record as “no change in emission intensity was observed”. Further, in data set [7] (room temperature), the “reaction time at room temperature” value is given as “more than 90 min”. Further, the “sensitivity of Cys detection (comparison)” value in data set [8] was “in nanomolar range”. Besides, in data set [9], the “linear range of fluorescence intensity at 524 nm with concentration of Cys” value was in the range of 0 to 1000 µM. Also, the pH dependent selectivity entry in data set [9] (Cys, Hcy and GSH with increasing pH) is recorded as “selectivity of probe to Cys at pH 7”. Also, in data set [9] (setting [10]), the “fluorescence quantum yield (Φf) after the addition of Cys” value turned out to be 0.32 and the “fluorescence quantum yield (Φf) in the absence of Cys” value was 0.06. The “fluorescence intensity increase upon addition of Cys” value in [9] (L 10 μM, Cys 0-1000 equiv., emission 524 nm, λExt=445 nm) is given as “up to 7 fold”. Besides, the “fluorescence response to amino acids (selectivity)” value in data set [9] (L 10 μM, amino acids 200 equiv., pH 7) was “Only Cys gives an enhancement in the fluorescence”. Besides, the “detection limit of Cys” value in data set [9] (based on S/N=3, fluorescence at 524 nm) was determined as 23.65 nM. Besides, the “fluorescence response to Hcy and GSH” value in [9] (identical conditions, pH 7) is “does not give any significant changes in fluorescence”.

The values are drawn from patent US10030002B2, “Coumarin derivative for detection of cysteine and process for the synthesis thereof” (COUNCIL OF SCIENTIFIC & INDUSTRIAL RESEARCH, priority 2015, dated 2018).
